Source: US20230076515A1, “STIMULI THAT HYPERACTIVATE RESIDENT DENDRITIC CELLS FOR CANCER IMMUNOTHERAPY” (Children's Medical Center Corporation, priority 2019, published 2023)

Assays:
[1] = tested on: T cells from skin draining lymph nodes; assay: In vivo OVA immunization and T cell re-stimulation; parameters: species or system mouse; conditions: for antigen-specific tetramer+IFNγ+ T cell responses: 7 days post immunization with OVA, 7 days ex vivo re-stimulation with OVA-loaded BMDC
Description: Flow cytometry: After FcR blockade, 7 days BMDCs were resuspended in MACS buffer (PBS with 1% FCS and 2 mM EDTA), and stained with the following fluorescently conjugated antibodies (BioLegend): anti-CD11c (clone N418), anti-I-A/I-E (clone M5/114.15.2), anti-CD40 (clone 3/23), anti-CD80(16-10A1), anti-CD69 clone (H1.2F3), anti-H-2Kb (clone AF6-88.5). Single cell suspension from the tumor or draining inguinal lymph nodes, or skin inguinal adipose tissue were resuspended in MACS buffer (PBS with 1% FCS and 2 mM EDTA), and stained with the following fluorescently conjugated antibodies (BioLegend): anti-CD8α (clone 53-6.7), anti-CD4 (clone RM4-5), anti-CD44 (clone IM7), anti-CD62L (MEL-14), anti-CD3 (17A2), anti-CD103 (2E7), anti-CD69 clone (H1.2F3), anti-CD45 (A20 or 30F11). LIVE/DEAD™ Fixable Violet Dead Cell Stain Kit (Molecular probes) was used to determine the viability of cells, and cells were stained for 20 minutes in PBS at 4° C. Draining inguinal lymph nodes T cells were stained with OVA-peptide tetramers at room temperature for 1 h. PE-conjugated H2K(b) SIINFEKL (OVA 257-264; SEQ ID NO: 1) and APC conjugated I-A(b) AAHAEINEA (OVA 329-337; SEQ ID NO: 2) were used. I-A(b) and H2K(b) associated with CLIP peptides were used as isotype controls. Tetramers were purchased for NIH tetramer core facility. in some experiments, FITC anti-CD8.1 (clone Lyt-2.1 CD8-E1) purchased from accurate chemical was used with tetramers. To determine absolute number of cells, COUNTBRIGHT counting beads (Molecular probes) were used, following the manufacturer's protocol. Appropriate isotype controls were used as a staining control. Data were acquired on a BD FACS ARIA or BD Fortessa. Data were analyzed using FlowJo software.
Intracellular staining: For intracellular cytokine staining, cells were stimulated with 50 ng/ml phorbol 12-myristate 13-acetate (PMA) and 500 ng/ml ionomycin (Sigma-Aldrich) in the presence of GolgiStop (BD) and brefeldin A for 4-5 h. Cells were then washed twice with PBS, and stained with LIVE/DEAD™ Fixable violet or green Dead Cell Stain Kit (Molecular probes) in PBS for 20 min at 4° C. Cells were washed with MACS buffer, and stained for appropriate surface markers for 20 min at 4° C. After two washes, cells were fixed and permeabilized using BD Cytofix/Cytoperm kit for 20 min at 4° C., then washed with 1× perm wash buffer (BD) per manufacturer's protocol. Intracellular cytokine staining was performed in 1× perm buffer for 20-30 min at 4° C. with the following conjugated antibodies all purchased from BioLegend: anti-Ki67 (clone 16A8), anti-IFN-γ (clone XMG1.2), anti TNFα (clone MP6-XT22), anti-Gata3 (16E10A23), anti-IL4(11B11), anti-IL10 (clone JES5-16E3). Data were acquired on a BD FACS ARIA or BD Fortessa. Data were analyzed using FlowJo software.
In vivo immunization and T cell re-stimulation: Female C57BL/6J mice aged 8 weeks, were immunized subcutaneously (s.c.) on the left lower back with either 150 μg/mouse endotoxin-free OVA plus 10 μg/mouse LPS emulsified in incomplete Freund's adjuvant, or with 150 μg/mouse endotoxin-free OVA, plus 65 μg/mouse oxPAPC or PGPC, plus 10 μg/mouse LPS emulsified in incomplete Freund's adjuvant. In some experiments mice were injected s.c. with OVA alone or with LPS emulsified in Alum. 7 or 40 days after immunization, CD4^+ T cells and CD8^+ T cells were isolated from the draining lymph nodes of immunized mice by magnetic cell sorting with anti-CD4 beads or anti-CD8 beads and columns (Miltenyi Biotech). Enriched cells were then sorted as live CD45^+CD3^+CD4^+ cells or live CD45^+CD3^+CD8^+ using FACS ARIA. Purity post-sorting was >98%. Sorted cells were then seeded in 96-well plates at a concentration of 100.000 cells per well in the presence of 10-20×10^3 DC pulsed with serial dilutions of OVA, starting at 1 mg/ml. […]

OT-II naïve CD4+ T cells = assay: OT-II in vitro T-cell stimulation; format: cell-based, mouse; conditions: OVA-loaded BMDCs co-cultured with OT-II T cells; ELISA
Description: OT-I and OT-II in vitro T-cell stimulation: Splenic CD8^+ and CD4^+ T cells were sorted from OT-I and OT-II mice by magnetic cell sorting with anti-CD8 beads or anti-CD4 beads respectively (Miltenyi Biotech). Sorted T cells were then seeded in 96-well plates at a concentration of 100.000 cells per well in the presence of either 20.000 or 10.000 DCs (5:1 or 10:1 ratio) that were pretreated with either LPS (activation stimuli) or LPS+PGPC (hyperactivation stimuli) or LPS+Alum (pyroptotic stimuli) and pulsed (or not) with OVA protein or SIINFEKL (SEQ ID NO: 1) peptide at 100 μg/ml for 2 hours. 5 days post culture, supernatants were collected and clarified by centrifugation for short-term storage at −20° C. and cytokine measurement by ELISA.
Intracellular staining: For intracellular cytokine staining, cells were stimulated with 50 ng/ml phorbol 12-myristate 13-acetate (PMA) and 500 ng/ml ionomycin (Sigma-Aldrich) in the presence of GolgiStop (BD) and brefeldin A for 4-5 h. Cells were then washed twice with PBS, and stained with LIVE/DEAD™ Fixable violet or green Dead Cell Stain Kit (Molecular probes) in PBS for 20 min at 4° C. Cells were washed with MACS buffer, and stained for appropriate surface markers for 20 min at 4° C. […] Data were analyzed using FlowJo software.

BMDCs = assay: BMDC stimulation, cytokine ELISA and LDH release; format: cell-based, mouse; conditions: LPS alone or LPS priming 3 h then stimuli 21 h, ELISA
Description: Cell culture: BMDCs were generated by differentiating bone marrow in IMDM (Gibco), 10% B16-GM-CSF derived supernatant, 2 μM 2-mercaptoethanol, 100 U/ml penicillin, 100 μg/ml streptomycin (Sigma-Aldrich) and 10% FBS. 6 day after culture, BMDCs were washed with PBS and re-plated in IMDM with 10% FBS at a concentration of 1×10^6 cells/ml in a final volume of 100 μl. CD11c^+ DC purity was assessed by flow cytometry using BD Fortessa and was routinely above 80%. Splenic DCs from mice injected with B16-FLT3 for 15 days, were purified as CD11c^+MHC^+ live cells, then plated at a concentration of 1×10^6 cells/ml in a final volume of 100 μl in complete IMDM. To induce hyperactive or pyroptotic BMDCs, DCs were primed with LPS (1 μg/ml) for 3 hours, then stimulated with OxPAPC or PGPC (100 μg/ml) or alum (100 μg/ml) for 21 h in complete IMDM. […]
LDH Assay and ELISAs: Fresh supernatants were clarified by centrifugation after BMDC stimulation, then assayed for LDH release assay using the Pierce LDH cytotoxicity colorimetric assay kit (Life Technologies) following the manufacturer's protocol. Measurements for absorbance readings were performed on a Tecan plate reader at wavelengths of 490 nm and 680 nm. […] ELISA for IL-1β, TNFα, IL-10, IL-12p70, IFNγ, IL-2, IL-13, IL-4 and IL-17 were performed using eBioscience Ready-SET-Go! […]

FLT3-DCs = assay: FLT3-DC stimulation, cytokine ELISA and LDH release; format: cell-based, mouse; conditions: ELISA
Description: FIGS. 14A-B. Oxidized phospholipids induce hyperactive cDC1 and cDC2 cells that display a hypermigratory phenotype. (A) Wild-type or NLRP3^−/− or Casp1/11^−/− BMDCs generated using FLT3L were either left untreated (none) or treated with LPS alone, or Alum alone, or PGPC alone for 24 h, or BMDCs were primed for 3 h with LPS, then treated with indicated stimuli for 21 h. IL-1β and TNFα release was monitored by ELISA. The percentage of cell death was measured by LDH release in the cell supernatants. Means and SDs from three replicates are shown and data are representative of at least three independent experiments. (B) Wild-type BMDCs generated using FLT3L were sorted as cDC1 or cDC2 cells then treated with indicated stimuli as in A. IL-1β and TNFα release was monitored by ELISA. The percentage of cell death was measured by LDH release in the cell supernatants. Means and SDs from three independent experiments done in two different laboratories.
Virtually all studies assessing the state of cell-hyperactivation have focused on the ability of bone marrow derived DC (BMDCs), generated with the cytokine granulocyte-macrophage colony-stimulating factor (GM-CSF), to release IL-1β while retaining viability. […] To examine whether conventional DCs can achieve a hyperactivation state, we used BMDCs generated using the DC hematopoietin Fms-like tyrosine kinase 3 ligand (Flt3L). […]

[2] = OVA immunization, 40 days post-immunization, ex vivo re-stimulation with OVA-loaded BMDCs

Compound: CCCCCCCCCCCCCCCC(=O)OC[C@H](COP(=O)([O-])OCC[N+](C)(C)C)OC(=O)CCCC(=O)O [PGPC, [(2R)-2-(4-carboxybutanoyloxy)-3-hexadecanoyloxypropyl] 2-(trimethylazaniumyl)ethyl phosphate]
- antigen-specific tetramer+IFNγ+ T cell responses [1]: highest frequency of tetramer+IFNγ+ responses
- effector and memory T cell generation ([1]; OVA plus LPS plus lipid, in IFA): enhance the magnitude of effector and memory T cell generation

Compound: lipopolysaccharide [LPS]
- release of IL-10 and IL-13 (TH2-associated cytokines) (OT-II naïve CD4+ T cells): large amounts of IL-10, and IL-13
- IL-1β release (BMDCs): did not induce the release of IL-1β
- antigen-specific tetramer+IFNγ+ T cell responses [1]: higher IFNγ effector function
- T central memory cells (TCM) in dLN ([1]; 40 days post-immunization with OVA): less abundant
- IFNγ production by re-stimulated T cells [1, 2]: producing IFNγ, IL-10, IL-4 and IL-13
- IL-10, IL-4 and IL-13 production by re-stimulated T cells [1, 2]: producing IFNγ, IL-10, IL-4 and IL-13
- IL-1β release (FLT3-DCs): did not induce IL-1β release from DCs
